From article PMC5077990, “P53 activation inhibits all types of hematopoietic progenitors and all stages of megakaryopoiesis” (Oncotarget, 2016)

How the values were obtained:
[1] = tested on: p53 pathway in megakaryocytes (MKs); experiment: p53 pathway proteins and transcripts in MKs (western-blot, qRT-PCR); type: cell-based, human; settings: day 7-MKs (legend: day 10-MK), 5 μM for 24 or 48 hours
Protocol: We also explored the effects of p53 stabilization at a later stage of megakaryocytic differentiation. […] Day 7-MKs were treated with 5 μM Nutlin 3a for 24 or 48 hours, which led to an increase in p53, p21, BAX, BCL2 and BCL-XL levels, confirming a functional p53 activity (Figure 6A). […] Similar results were found with day 6-megakaryoblasts treated with two doses of SAR405838 for 72 hours (Figure 6D/6E) without any major effect on the percentage of CD41^+ cells (Figure 6F). […] As shown in Figure 6D/6E, at the dose of 0.5 μM the SAR405838 induced a 50% decreased in the number of viable cells while the apoptotic cells reached 50% of the total cells. We checked if the effect of SAR405838 on MKs could be reverted by the addition of high TPO doses. CD34^+ progenitors were cultured in serum-free medium supplemented with SCF and low dose of TPO (1 ng/mL) for 6 days. Day 6-megakaryoblasts were then treated with 1.5 μM of SAR405838 for 48 hours and various doses of TPO.
In parallel, the expression of P53, BAK, BCL2L1, NOXA, PUMA, BAX, P21 and P53 were quantified by qRT-PCR related to HPRT. C. […] (n=3). […]
PCRs were carried out in the ABI Prism GeneAmp 5700 (Perkin-Elmer) using the Power SYBR-Green PCR Master Mix (ABI) containing the specific primers. The expression levels of all genes were calculated relatively to HPRT or to PPIA housekeeping gene.
Proteins were quantified by Image J software.

[2] = tested on: BFU-E (Burst Forming Unit-Erythroid) progenitors from CD34+ cells; experiment: Colony assay in methylcellulose, BFU-E; type: cell-based, human; settings: CD34+ cells seeded in methylcellulose in the presence of compound; compared to untreated control
Protocol: (§1) CD34^+cells were obtained from leukapheresis samples after mobilization of donors after informed consent in agreement with our Institute Ethic Committee (Assistance Publique des Hôpitaux de Paris) and in accordance with the Declaration of Helsinki. CD34^+cells were isolated by a positive selection using an immunomagnetic cell sorting system (AutoMacs; Miltenyi Biotec, Bergisch Gladbach, Germany). 500 to 1000 normal CD34^+cells were plated either in 1% methylcellulose assay (StemCells technologies, Vancouver, Canada) to quantify erythroid (BFU-E) and granulo-monocytic (CFU-GM) progenitors or in serum-free fibrin clot assay for quantification of MK progenitors (CFU-MK) in the absence or presence of various concentration of SAR405838 or MI-219. Cultures in methylcellulose were stimulated by addition of human recombinant growth factors: G-CSF (20 ng/mL), IL-3 (10 ng/mL) SCF (25 ng/mL, Biovitrum AB, Stockholm, Sweden), IL-6 (10 ng/mL), FLT3 (10 ng/mL) and human EPO (1 U/mL). Cultures in fibrin clot were stimulated with 10 ng/mL TPO (Kirin Brewery, Tokyo, Japan) and 25 ng/mL SCF. BFU-E and CFU-GM colonies were enumerated at day 14 of culture. CFU-MK colonies were enumerated at day 12 after labeling by an indirect immuno-alkaline phosphatase staining technique using an anti-CD41a monoclonal antibody (MoAb; Becton Dickinson, le Pont de Claix, France; clone HIP8), as previously described.

[3] = tested on: CFU-MK (Colony Forming Unit-Megakaryocyte) progenitors from CD34+ cells; experiment: Colony assay in fibrin clot, CFU-MK; type: cell-based, human; settings: CD34+ cells seeded in fibrin clot in the presence of compound; compared to untreated control
Protocol: as §1, with “CFU-MK colonies were enumerated at day 12 after labeling by an indirect immuno-alkaline phosphatase staining technique using an anti-CD41a monoclonal antibody (MoAb; Becton Dickinson, le Pont de Claix, France; clone HIP8), as previously described.” left out

[4] = tested on: CFU-GM (Colony Forming Unit-Granulocyte Macrophage) progenitors from CD34+ cells; experiment: Colony assay in methylcellulose, CFU-GM; type: cell-based, human; settings: CD34+ cells seeded in methylcellulose in the presence of compound; compared to untreated control
Protocol: as §1, with “BFU-E and CFU-GM colonies were enumerated at day 14 of culture.” left out

[5] = tested on: Day 6 megakaryoblasts (ploidization); experiment: MK ploidy by flow cytometry (CD41/CD42/vital Hoechst staining); type: cell-based, human; settings: day 6 megakaryoblasts treated 72 hours, analysed day 9; SAR405838 at 1 μM; untreated control 4.4 N
Protocol: First, we investigated if MDM2 inhibitors affect MK ploidization. SAR405838 induced a significant reduction in the mean ploidy (3.0 N at the dose of 1 μM versus 4.4 N for untreated control or for MI-219 treatment) (Supplementary Figure S1). page 1: P53 activation inhibits all types of hematopoietic progenitors and all stages of megakaryopoiesis SUPPLEMENTARY FIGURE Supplementary Figure S1: Effect of SAR405838 on polyploidization. Day 6 megakaryoblasts were treated for 72 hours with various doses of MI-219 or SAR405838. At day 9, ploidy was analyzed by flow cytometry using a CD41/CD42/vital Hoechst staining. N represents the mean ploidy. As shown, SAR405838 induced a significant reduction in the mean ploidy (3.0N at the dose of 1μM versus 4.4N for control or for MI-219 treatment). The Figure illustrates a representative experiment in triplicate. Two other experiments in triplicate gave similar results. […]

[6] = set-up: method as in PMID 23084521, PMID 24309210; settings: clinical and preclinical data in rats and monkeys; cited from earlier work

## COc1ccc(C2=N[C@@H](c3ccc(Cl)cc3)[C@@H](c3ccc(Cl)cc3)N2C(=O)N2CCNC(=O)C2)c(OC(C)C)c1 [Nutlin 3a]
[1]
  p53, p21, BAX, BCL2 and BCL-XL levels (western-blot): increase

## CC(C)(C)C[C@H]1N[C@@H](C(=O)NCC[C@H](O)CO)[C@H](c2cccc(Cl)c2)[C@@]12C(=O)Nc1cc(Cl)c(F)cc12.Cl [MI-219]
[2]
  dose inducing a 50% reduction of BFU-E numbers: significant less potent activity compared to SAR405838
[3]
  dose inducing a 50% reduction of CFU-MK numbers: significant less potent activity compared to SAR405838
[4]
  dose inducing a 50% reduction of CFU-GM numbers: significant less potent activity compared to SAR405838
[5]
  mean ploidy: 4.4 N

## COc1ccc(C2=N[C@@H](c3ccc(Cl)cc3)[C@@H](c3ccc(Cl)cc3)N2C(=O)N2CCNC(=O)C2)c(OC(C)C)c1 [Nutlin]
[6]
  hematological adverse effect: major thrombocytopenia

## CCOc1cc(C(C)(C)C)ccc1C1=N[C@@](C)(c2ccc(Cl)cc2)[C@@](C)(c2ccc(Cl)cc2)N1C(=O)N1CCN(CCCS(C)(=O)=O)CC1 [RG7112]
[6]
  hematological adverse effect: major thrombocytopenia
